In one series the test system is liver and kidney tissue. Description: Sub-chronic toxicity, histopathology of liver and kidney. The conditions noted are these: 100 and 500 μg kg−1, tail vein, once daily, 42 days, n = 8/group. It counts as in vivo, Sprague-Dawley rats. The method, then: The tabulated biochemical profile (novel biomarkers of the liver and kidney) corroborates the safety charms of SP1 for further in vivo studies.
24 male Sprague Dawley rats were randomly divided into three groups: control, SP1A, and SP1B. Each group contains 8 animals and administration of SP1was performed for 42 days through a tail vein by the following schedule: Control: Without any treatment.
Rats were sacrificed after 42 days of injection schedule and blood was collected for hematological and biochemical estimations. For the histopathological study, the liver and kidney were also isolated very carefully and checked for cytoarchitectural changes if any.
The body weights and volumes of SP1 to be administered were recorded for each animal. Prior to injection, the tail of the animal was warmed by using warm water circulating pad placed under the cage for 5-10 minutes to dilate the veins. A 25-gauge needle was inserted into the vein towards the direction of the head. The needle and syringe were kept parallel to the tail. […]
The biochemical parameters including blood glucose, serum urea, creatinine, total bilirubin, serum glutamic oxaloacetic transaminase (SGOT), serum glutamic pyruvic transaminase (SGPT), and alkaline phosphatase (ALP) were analyzed for sub-chronic toxicity of SP1by using commercially available diagnostic test kits (Crest Biosystems kits, India). […]

A short description of series [1]: Carboxyfluorescein dye leakage from LUVs, Aβ40. The format is biochemical. The method, then:
Smaller Aβ oligomers or protofibrils are more toxic than mature fibrils in AD progression due to their ability to disrupt membranes via pore formation.[37,38] […] To evaluate this, we performed a membrane leakage assay on carboxyfluorescein-loaded large unilamellar vesicles (LUVs).[38] The time required for Aβ40 oligomer and mature fibril formation is 12 h and 72 h, respectively (inferred from ThT assay, black curve, Fig. 2a), which directed us to set up the LUV leakage assay. […] The fluorescence intensity of complete dye release from LUVs by Triton X-100 served as a positive control (100% leakage), and untreated dye-loaded LUVs assisted as a negative control. […]
e. Time-resolved photoluminescence (TRPL) […]
μM. Then, 600 μL of peptide sample was placed in a 1 mL fluorescence cuvette and measure the excited state lifetime on Eddinburg FSP920 Instrument. f. […]
Prior to the analysis, samples were filtered through 0.45 µm PVDF membrane. […] For each sample, the analyses were recorded three times with 11 sub-runs using the multimodal mode. The Z-average diameter was calculated from the correlation function using Malvern technology software. g. […]
h. Carboxyfluorescein dye loaded Large Unilamellar Vesicles (LUVs) Leakage Study For leakage study, peptide and lipids were taken in 1:20 molar ratios, and the dye release was monitored by fluorescence emission. […]

*1 amine or outer side, *2 acyl side, *3 side chain or, on linkers, in order; H or OH if unused. Where a SMILES comes first, the peptide text is derived from it. Bridges are numbered along the chain shown (N, C = ends). Roman numbers before positions name the chains, in order. [ ]: non-standard residue; d: D form. X1 = O=C(CCCCC(=O)[*:2])NCCCOCCOCCOCCCNC(=O)CCC(=O)[*:1]; NMeF = CN[C@@H](Cc1ccccc1)C(=O)O; NMeL = CN[C@@H](CC(C)C)C(=O)O; NMeV = CN[C@H](C(=O)O)C(C)C

In the case of `CC(C)C[C@H](NC(=O)CNC(=O)CCC(=O)NCCCOCCOCCOCCCNC(=O)CCCCC(=O)NCC(=O)N(C)[C@@H](CC(C)C)C(=O)N[C@H](C(=O)N(C)[C@@H](Cc1ccccc1)C(=O)N[C@@H](Cc1ccccc1)C(=O)N[C@@H](C)C(N)=O)C(C)C)C(=O)N(C)[C@H](C(=O)N[C@@H](Cc1ccccc1)C(=O)N(C)[C@@H](Cc1ccccc1)C(=O)N[C@@H](C)C(N)=O)C(C)C` [SP1] (I: GL[NMeV]F[NMeF]A-NH2 / II: G[NMeL]V[NMeF]FA-NH2; linker I:N-II:N via X1), the “cytoarchitectural changes in liver and kidney tissue” value with liver and kidney tissue is “did not observe any cytoarchitectural changes in the liver and kidney tissue”.
As for “Aβ40: commercially available Aβ40 peptide”, the “dye leakage from LUVs” value is approximately 40% in series [1] (Aβ40 oligomers (12 h aged), until 100 min, untreated LUVs ∼9%, Triton X-100 = 100%) and approximately 15% in series [1] (mature Aβ40 fibrils (72 h), 100 min, peptide:lipid 1:20).

(Values after PMC8179358, “An explicitly designed paratope of amyloid-β prevents neuronal apoptosis in vitro and hippocampal damage in rat brain” (Chemical Science, 2020).)
